Patent US9353104B2, “Substituted pyridizinone derivatives as PDE10 inhibitors” (priority 2013, dated 2016)

biological target: human PDE10A2 (Homo sapiens (Human), UniProt Q9Y233); test: PDE10 fluorescence polarization (IMAP FP) inhibition assay; format: biochemical; details: human PDE10A2 lysate, FAM-labeled cAMP 50 nM, room temperature; read-out: PDE10A Ki
Procedure, shortened: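 Cytoplasmic lysate of AD293 cells transiently expressing human PDE10A2, diluted for ~20% conversion of 50 nM FAM-cAMP, in 10 mM Tris pH 7.2, 10 mM MgCl2, 1 mM DTT, 0.01% Tween-20. Reaction 30 min at room temperature, read by IMAP fluorescence polarization; 10-point 3-fold titrations, 1% DMSO as 0%, reference PDE10 inhibitor at 5,000× Ki as 100%.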

Sequence of human PDE10A2 (Q9Y233 267-1055): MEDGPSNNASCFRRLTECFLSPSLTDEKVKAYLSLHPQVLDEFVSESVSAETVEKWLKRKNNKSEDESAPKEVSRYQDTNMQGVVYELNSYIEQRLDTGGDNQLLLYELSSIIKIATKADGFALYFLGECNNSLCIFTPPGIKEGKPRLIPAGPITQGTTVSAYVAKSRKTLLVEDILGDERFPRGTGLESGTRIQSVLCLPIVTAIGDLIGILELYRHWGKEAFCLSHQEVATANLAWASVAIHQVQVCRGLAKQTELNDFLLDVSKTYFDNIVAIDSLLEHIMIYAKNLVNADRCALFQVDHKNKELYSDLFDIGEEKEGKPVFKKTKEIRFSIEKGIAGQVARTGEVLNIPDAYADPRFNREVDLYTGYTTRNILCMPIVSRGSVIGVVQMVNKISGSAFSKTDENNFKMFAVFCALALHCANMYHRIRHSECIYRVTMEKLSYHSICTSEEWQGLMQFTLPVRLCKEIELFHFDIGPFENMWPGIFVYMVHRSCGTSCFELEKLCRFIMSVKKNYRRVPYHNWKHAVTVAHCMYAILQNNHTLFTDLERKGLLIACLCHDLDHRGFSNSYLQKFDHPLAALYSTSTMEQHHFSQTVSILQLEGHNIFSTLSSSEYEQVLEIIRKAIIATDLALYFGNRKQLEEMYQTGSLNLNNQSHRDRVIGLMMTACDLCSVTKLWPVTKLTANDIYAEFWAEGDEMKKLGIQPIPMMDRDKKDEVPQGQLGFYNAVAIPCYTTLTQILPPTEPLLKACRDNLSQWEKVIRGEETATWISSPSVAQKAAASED

Question: With `COc1ccc([C@H]2C[C@@H]2COc2cc(NCc3nc(C)ccc3F)c(=O)n(C)n2)nc1` [Example 70, 4-(((3-fluoro-6-methyl-pyridin-2-yl)methyl)-amino)-6-(((1S,2S)-2-(5-methoxypyridin-2-yl)-cyclopropyl)methoxy)-2-methylpyridazin-3(2H)one] as the molecule, how does the Ki read?
Answer: 55.1 nM

Question: How did the Ki turn out when `COc1ccc([C@H]2C[C@@H]2COc2cc(NCc3nc(C)ccc3C)c(=O)n(C)n2)nc1` [Example 71, 4-(((3,6-dimethylpyridin-2-yl)methyl)amino)-6-(((1S,2S)-2-(5-methoxy-pyridin-2-yl)cyclopropyl-)-methoxy)-2-methylpyridazin-3(2H)one] was run?
Answer: 48.5 nM

Question: `COc1ccc([C@H]2C[C@@H]2COc2cc(NCc3ccc(C)cn3)c(=O)n(C)n2)nc1` [Example 72, 6-(((1S,2S)-2-(5-methoxy-pyridin-2-yl)cyclopropyl-)-methoxy)-2-methyl-4-(((5-methylpyridin-2-yl)-methyl)amino)pyridazin-3(2H)-one] was tested. Which Ki did it give?
Answer: 0.019 nM

Question: How did the Ki turn out when `COc1ccc([C@H]2C[C@@H]2COc2cc(NCc3ncccc3C)c(=O)n(C)n2)nc1` [Example 73, 6-(((1S,2S)-2-(5-methoxypyridin-2-yl)cyclopropyl)methoxy)-2-methyl-4-(((3-methyl-pyridin-2-yl)methyl)-amino)pyridazin-3(2H)one] was run?
Answer: 32.3 nM

Question: With `COc1ccc([C@H]2C[C@@H]2COc2cc(NCc3ccc(F)c(C)n3)c(=O)n(C)n2)nc1` [Example 74, 4-(((5-fluoro-6-methyl-pyridin2yl)methyl)amino)-6-(((1S,2S)-2-(5-methoxy-pyridin-2-yl)cyclopropyl-)-methoxy)-2-methyl-pyridazin-3(2H)-one] as the molecule, how does the Ki read?
Answer: 5.3 nM

Question: With `COc1ccc([C@H]2C[C@@H]2COc2cc(NCc3ccc(Cl)c(C)n3)c(=O)n(C)n2)nc1` [Example 75, 4-(((5-chloro-6-methyl-pyridin-2-yl)methyl)-amino)-6-(((1S,2S)-2-(5-methoxypyridin-2-yl)cyclopropyl)methoxy)2-methylpyridazin-3(2H)one] as the molecule, how does the Ki read?
Answer: 1.3 nM

Question: How did the Ki turn out when `COc1ccc([C@H]2C[C@@H]2COc2cc(NCc3ccc(C)nn3)c(=O)n(C)n2)nc1` [Example 76, 6-(((1S,2S)-2-(5-methoxy-pyridin-2-yl)cyclopropyl-)-methoxy)-2-methyl-4-(((6-methylpyridazin-3-yl)methyl)amino)pyridazin-3(2H)-one] was run?
Answer: 0.039 nM

Question: `COc1ccc(Cn2cc(CNc3cc(OC[C@H]4C[C@@H]4c4ccc(OC)cn4)nn(C)c3=O)c(C)n2)cc1` [Example 77, 4-((1-(4-methoxybenzyl)-3-methyl-1H-pyrazol-4-yl)methylamino)-6-(((1S,2S)-2-(5-methoxy-pyridin-2-yl)cyclopropyl)-methoxy)-2-methyl-pyridazin-3(2H)-one] was tested. Which Ki did it give?
Answer: 5.7 nM

Question: `Cc1ccc([C@H]2C[C@@H]2COc2cc(NCc3cnn4ccccc34)c(=O)n(C)n2)nc1` [Example 79, 2-methyl-6-(((1S,2S)-2-(5-methylpyridin-2-yl)cyclopropyl)methoxy)-4-((pyrazolo[1,5-a]pyridin-3-ylmethyl)amino)-pyridazin-3(2H)-one] was tested. Which Ki did it give?
Answer: 1.1 nM

Question: How did the Ki turn out when `CN(C)c1c(CNc2cc(OC[C@H]3C[C@@H]3c3ccn(C)n3)nn(C)c2=O)cnn1C` [Example 82, 4-(((5-(dimethylamino)-1-methyl-1H-pyrazol-4-yl)methyl)amino)-2-methyl-6-(((1S,2S)-2-(1-methyl-1H-pyrazol-3-yl)cyclopropyl)methoxy)-pyridazin-3(2H)-one] was run?
Answer: 75 nM

Question: Which Ki does the source give for `COc1ccc([C@H]2C[C@@H]2COc2cc(NCc3cnn(C)c3N(C)C)c(=O)n(C)n2)nc1` [Example 83, 4-(((5-(dimethylamino)-1-methyl-1H-pyrazol-4-yl)methyl)amino)-6-(((1S,2S)-2-(5-methoxypyridin-2-yl)cyclopropyl)methoxy)-2-methylpyridazin-3(2H)-one] here?
Answer: 42.6 nM

Question: `Cc1cnn(C)c1CNc1cc(OC[C@H]2C[C@@H]2c2ccn(C)n2)nn(C)c1=O` [Example 86, 4-(((1,4-dimethyl-1H-pyrazol-5-yl)methyl)amino)-2-methyl-6-(((1S,2S)-2-(1-methyl-1H-pyrazol-3-yl)cyclopropyl)methoxy)-pyridazin-3(2H)-one] was tested. Which Ki did it give?
Answer: 9.4 nM

Question: `COc1ccc([C@H]2C[C@@H]2COc2cc(NCc3cc(C)on3)c(=O)n(C)n2)nc1` [Example 87, 6-(((1S,2S)-2-(5-methoxypyridin-2-yl)cyclopropyl)methoxy)-2-methyl-4-(((5-methylisoxazol-3-yl)methyl)amino)pyridazin-3(2H)-one] was tested. Which Ki did it give?
Answer: 0.01 nM

Question: With `COc1ccc([C@H]2C[C@@H]2COc2cc(NCc3nc(C)nn3C)c(=O)n(C)n2)nc1` [Example 88, 4-(((1,3-dimethyl-1H-1,2,4-triazol-5-yl)methyl)amino)-6-(((1S,2S)-2-(5-methoxypyridin-2-yl)cyclopropyl)methoxy)-2-methylpyridazin-3(2H)-one] as the molecule, how does the Ki read?
Answer: 2.8 nM

Question: Which Ki does the source give for `COc1ccc([C@H]2C[C@@H]2COc2cc(NCc3cc(C)no3)c(=O)n(C)n2)nc1` [Example 89, 6-(((1S,2S)-2-(5-methoxypyridin-2-yl)cyclopropyl)methoxy)-2-methyl-4-(((3-methylisoxazol-5-yl)methyl)amino)pyridazin-3(2H)-one] here?
Answer: 0.008 nM

Question: How did the Ki turn out when `COc1ccc([C@H]2C[C@@H]2COc2cc(N(Cc3ccc(C)nc3C)Cc3ccc(C)nc3C)c(=O)n(C)n2)nc1` [Example 91, 4-(bis((2,6-dimethylpyridin-3-yl)methyl)amino)-6-(((1S,2S)-2-(5-methoxypyridin-2-yl)cyclopropyl)methoxy)-2-methylpyridazin-3(2H)-one] was run?
Answer: 5.9 nM

Question: For `COc1ccc([C@H]2C[C@@H]2COc2cc(NC(=O)c3cnn(C)c3Cl)c(=O)n(C)n2)nc1` [Example 95, 5-chloro-N-(6-(((1S,2S)-2-(5-methoxypyridin-2-yl)-cyclopropyl)methoxy)-2-methyl-3-oxo-2,3-dihydro-pyridazin-4-yl)-1-methyl-1Hpyrazole-4carboxamide], which Ki is on record?
Answer: 75 nM

Question: For `COc1ccc([C@H]2C[C@@H]2COc2cc(NCc3cnn(C)c3Cl)c(=O)n(C)n2)nc1` [Example 96, 4-(((5-chloro-1-methyl-1H-pyrazol-4-yl)methyl)-amino)-6-(((1S,2S)-2-(5-methoxypyridin-2-yl)-cyclopropyl)methoxy)-2-methylpyridazin-3(2H)one], which Ki is on record?
Answer: 1.27 nM

Question: Which Ki does the source give for `COc1ccc([C@H]2C[C@@H]2COc2cc(NCc3cccc(C)n3)c(=O)n(C)n2)nc1` [Example 97, 6-(((1S,2S)-2-(5-methoxypyridin-2-yl)-cyclopropyl)methoxy)-2-methyl-4-(((6-methyl-pyridin-2-yl)methyl)-amino)pyridazin-3(2H)one] here?
Answer: 2.7 nM

Question: With `Cn1ccc([C@H]2C[C@@H]2COc2cc(NCc3ccnn3C)c(=O)n(C)n2)n1` [Example 98, 2-methyl-6-(((1S,2S)-2-(1-methyl-1H-pyrazol-3-yl)cyclopropyl)methoxy)-4-(((1-methyl-1H-pyrazol-5-yl)methyl)amino)-pyridazin-3(2H)-one] as the molecule, how does the Ki read?
Answer: 1.5 nM

Question: For `Cc1ccc([C@H]2C[C@@H]2COc2cc(NCc3ccnn3C)c(=O)n(C)n2)nc1` [Example 99, 2-methyl-4-(((1-methyl-1H-pyrazol-5-yl)methyl-)amino)-6-(((1S,2S)-2-(5-methylpyridin-2-yl)cyclo-propyl)methoxy)pyridazin-3(2H)-one], which Ki is on record?
Answer: 0.138 nM

Question: With `COc1ccc([C@H]2C[C@@H]2COc2cc(NCc3ccnn3C)c(=O)n(C)n2)nc1` [Example 100, 6-(((1S,2S)-2-(5-methoxypyridin-2-yl)-cyclopropyl)methoxy)-2-methyl-4-(((1-methyl-1H-pyrazol-5-yl)methyl)-amino)pyridazin-3(2H)one] as the molecule, how does the Ki read?
Answer: 0.192 nM

Question: Which Ki does the source give for `COc1ccc([C@H]2C[C@@H]2COc2cc(NC(=O)c3cc(C)nn3C)c(=O)n(C)n2)nc1` [Example 101, N-(6-(((1S,2S)-2-(5-methoxypyridin-2-yl)-cyclopropyl)methoxy)-2-methyl-3-oxo-2,3-dihydropyridazin-4-yl)-1,3-dimethyl-1H-pyrazole-5-carboxamide] here?
Answer: 75 nM

Question: For `Cc1ccc([C@H]2C[C@@H]2COc2cc(NC(=O)c3cc(C)nn3C)c(=O)n(C)n2)nc1` [Example 102, 1,3-dimethyl-N-(2-methyl-6-(((1S,2S)-2-(5-methyl-pyridin-2-yl)cyclopropyl-)methoxy)-3-oxo-2,3-dihydropyridazin-4-yl)-1H-pyrazole-5-carboxamide], which Ki is on record?
Answer: 51.2 nM

Question: `Cc1cc(C(=O)Nc2cc(OC[C@H]3C[C@@H]3c3ccn(C)n3)nn(C)c2=O)n(C)n1` [Example 103, 1,3-dimethyl-N-(2-methyl-6-(((1S,2S)-2-(1-methyl-1H-pyrazol-3-yl)cyclopropyl)methoxy)-3-oxo-2,3-dihydropyridazin-4-yl)-1H-pyrazole-5-carboxamide] was tested. Which Ki did it give?
Answer: 75 nM

Question: How did the Ki turn out when `Cc1ccc([C@H]2C[C@@H]2COc2cc(NCc3cn(C)nc3C(F)(F)F)c(=O)n(C)n2)nc1` [Example 104, 2-methyl-4-(((1-methyl-3-(trifluoromethyl)-1H-pyrazol-4-yl)methyl)-amino)-6-(((1S,2S)-2-(5-methylpyridin-2-yl)cyclo-propyl)methoxy)pyridazin-3(2H)-one] was run?
Answer: 0.056 nM

Question: How did the Ki turn out when `COc1ccc([C@H]2C[C@@H]2COc2cc(NCc3cc(C)ccn3)c(=O)n(C)n2)nc1` [Example 105, 6-(((1S,2S)-2-(5-methoxy-pyridin-2-yl)cyclopropyl-)methoxy)-2-methyl-4-(((-4-methylpyridin-2-yl)-methyl)amino)pyridazin-3(2H)-one] was run?
Answer: 0.276 nM

Question: Which Ki does the source give for `CCn1ccc(CNc2cc(OC[C@H]3C[C@@H]3c3ccc(OC)cn3)nn(C)c2=O)n1` [Example 106, 4-(((1-ethyl-1H-pyrazol-3-yl)methyl)amino)-6-(((-1S,2S)-2-(5-methoxy-pyridin-2-yl)cyclopropyl-)methoxy)-2-methyl-pyridazin-3(2H)-one] here?
Answer: 5.89 nM

Question: `Cc1ncc(CNc2cc(OC[C@H]3C[C@@H]3c3nn(C)c4ccccc34)nn(C)c2=O)s1` [Example 109, 2-methyl-6-(((1S,2S)-2-(1-methyl-1H-indazol-3-yl)cyclopropyl)methoxy)-4-((2-methylthiazol-5-yl)methylamino)pyridazin-3(2H)-one] was tested. Which Ki did it give?
Answer: 2.15 nM
